US20050170431A1, “PYK2 crystal structure and uses” (Plexxikon, Inc., priority 2003, published 2005)
pIC50: −log10 of the molar value.

Target: T1, Pyk2 kinase domain residues 419 to 691 (Homo sapiens, UniProt Q14289)
T1 construct: PYK2 kinase domain I420-M691 (not including first 21 aa in); made in house; host or cells: E. coli BL21 (DE3) pLysS
Assay: PYK2 kinase activity assay in AlphaScreen, inhibition by ATP analogs
Assay type: biochemical
Settings: Pyk2 at 8 ng/well and ATP at 10 uM; read-out: affinity with Pyk2
Method: As an exemplary kinase assay, the kinase activity of PYK2 was measured in AlphaScreening (Packard BioScience). The kinase buffer (HMNB) contains HEPES 50 mM at pH7.2, Mg/Mn 5 mM each, NP-40 0.1%, and BSA at final 50 ug/ml. AlphaScreening is conducted as described by the manufacturer. In brief, the kinase reaction is performed in 384-well plate in 25 ul volume. The substrate is biotin-(E4Y)3 at final concentration of 1 nM. The final concentration of ATP is 10 uM. For compound testing the final DMSO concentration is 1%. The reaction is incubated in 31° C. for 1 hour.
The Pyk2 kinase domain residues 419 to 691 is an active kinase in AlphaScreen. […] Inhibition by ATP analogs was tested with Pyk2 at 8 ng/well and ATP at 10 uM. […] Adenosine and AMP-PCP have little effect on PYK2 in the concentration tested.

T1 sequence (Q14289 420-691): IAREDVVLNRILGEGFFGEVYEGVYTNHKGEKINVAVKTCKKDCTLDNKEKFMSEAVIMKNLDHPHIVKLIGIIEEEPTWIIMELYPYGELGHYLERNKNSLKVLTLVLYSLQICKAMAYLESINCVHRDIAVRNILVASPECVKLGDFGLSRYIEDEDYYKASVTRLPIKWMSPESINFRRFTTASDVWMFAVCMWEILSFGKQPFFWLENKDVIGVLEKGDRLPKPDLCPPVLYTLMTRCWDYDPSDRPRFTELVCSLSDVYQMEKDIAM

Compound	pIC50
Nc1ncnc2c1ncn2[C@@H]1O[C@H](COP(=O)(O)OP(=O)(O)O)[C@@H](O)[C@H]1O [ADT, ADP]	4.85
Nc1ncnc2c1ncn2[C@@H]1O[C@H](COP(=O)(O)OP(=O)(O)OP(O)(O)=S)[C@@H](O)[C@H]1O [ATP-g-S]	4.85
